Experimental data reported in patent US4130647A, “Methods for treating congestive heart failure and ischemic heart disease” (priority 1977, dated 1978).
Values joined by “and” are separate entries in the source; they are usually repeats but may differ in a detail not shown here. Identical values can stand only once.

Tests used:
[1] = test system: patients with congestive heart failure; assay: Dose-finding of oral trimazosin in congestive heart failure (Example 2); format: in vivo, human; conditions: for Change in Heart Rate at Peak / Change in Systolic Pressure at Peak / Time to Peak Effect: individual patients
Procedure: Studies were performed in male patients with clinical and radiographic evidence of congestive heart failure due to ischemic or primary cardiomyopathy. To be eligible for the study patients had to have supine systolic blood pressure of at least 100 mm. Hg. and a supine resting cardiac index below 2.5 L/min./m^2, as measured by the non-invasive carbon dioxide rebreathing method [Franciosa, et al., J. Lab. Clin. Med., 88, 662 (1976) and Franciosa, et al., Circulation, 55, 449 (1977)]. Six patients met these criteria and were selected for the study.
After obtaining written informed consent, patients were entered into a 2 day dose finding period during which single daily doses of trimazosin were given and blood pressure and heart rate monitored for 4 hours. On day one 100 mg. was given; if no response or side effects occurred, 200 mg. was given the next day. For purposes of this study a response was defined as a fall in supine blood pressure to a level equal to 0.2 × control systolic pressure +76 mm. Hg. This formula was arbitrarily chosen so that patients with control systolic blood pressure as low as 100 mm. Hg. would be included, and their pressures could be reduced to 96 mm. Hg. Upon completion to the dose finding period, no trimazosin was given for the next 24 hours to allow for washout of previous doses. After this, hemodynamic studies were performed employing the predetermined doses; if 200 mg. of trimazosin was ineffective, 300 mg. was given for hemodynamic studies.

clinical = conditions: human, po
adrenergic = assay: Adrenergic blocking activity of trimazosin
Excerpt: This observation might have important clinical implications since other vasodilators may be contraindicated in patients with compensated ischemic heart disease who may develop tachycardia and increased myocardial oxygen requirements [Sonnenblick, et al., N. Engl. J. Med., 285, 688 (1971)] in response to vasodilators.

[2] = test system: patients with chronic left sided congestive heart failure; assay: Improvement of symptoms and roentgenographic pulmonary venous congestion, trimazosin (Example 3); format: in vivo, human
Excerpt: After baseline measurements, all 16 patients received one capsule of single-blind placebo three times daily for two weeks. The patients then received in a double-blind, randomized study trimazosin or placebo for six weeks. Eight patients received one placebo capsule three times daily for weeks one and two, two placebo capsules three times daily for weeks three and four, and three placebo capsules three times daily for weeks five and six of the double-blind period. Seven patients received one 50 mg. trimazosin capsule three times daily for weeks one and two, two 50 mg. trimazosin capsules three times daily for weeks three and four, and three 50 mg. trimazosin capsules three times daily for weeks five and six of the double-blind period. One patient (patient number five on trimazosin) received one 50 mg. trimazosin capsule three times daily for 32 days. Their trimazosin dose was not increased after two weeks of this dose because their standing systolic blood pressure was 104/70 mm. Hg.
The patients were seen by one of the investigators, questioned for symptoms, and given a physical examination in the baseline period, at the end of two weeks of single-blind placebo, and at the end of weeks one, two, three, four, five, and six on double-blind medication. […]
The data listed in Tables 1-4 were analyzed using Student's t test for independent means. […]

norepinephrine = conditions: in vivo; cited from earlier work
[3] = test system: forearm veins of patients with congestive heart failure; assay: Forearm venous capacitance by occlusion plethysmography after trimazosin (Example 2); format: in vivo, human
Procedure: On the day of hemodynamic studies, diuretics and other vasodilators were withheld but maintenance digitalis doses were given in order to obtain a reasonably steady hemodynamic state. Procainamide was given to the one patient who had been taking it chronically. Right heart catheterization was performed using a triple lumen Swan-Ganz catheter which was inserted percutaneously via an antecubital or femoral vein and positioned with its tip in the pulmonary artery and the proximal lumen in the right atrium [Swan, et al,. N. Engl. J. Med., 283, 447 (1970)]. A brachial artery was cannulated with a short teflon catheter inserted over an 18-guage thin walled needle. Catheters were connected to P23Db Statham pressure transducers and pressures recorded on a Hewlett-Packard multichannel physiological recorder. Transducers were positioned at the mid-chest level with the patient supine, and all measurements were made in this position. Heart rate was monitored from the electrocardiogram. Cardiac outputs were measured by the dye-dilution method using indocyanine green injected into the pulmonary artery and sampled from the brachial artery through a Gilford densitometer connected to the recorder. Forearm venous capacitance was measured by occlusion plethysmography employing a Whitney mercury-in-rubber resistance guage [Cohen, et al., Clin. Sci., 30, 267 (1966) and Mason, et al., Circulation, 32, 756 (1965)]. For this determination, the forearm was elevated and suspended in a cradle. The venous occluding cuff was inflated to 30 mm. Hg. and forearm girth allowed to equilibrate over 2-3 minutes. The change in forearm girth at this point was taken as a measure of venous capacitance.
Hemodynamic measurements were made before and at hourly intervals for 4 hours after administration of trimazosin. […] Systemic vascular resistance was calculated as the difference between means systemic arterial and right atrial pressures divided by cardiac output. Pulmonary vascular resistance was calculated as mean pulmonary arterial pressure divided by cardiac output. […]

[4] = 200 mg. trimazosin oral, mean of 4, ns
[5] = 200 mg. trimazosin, patient no. 4

half-life (clinical; in vivo): 3 to 6 h | Tmax (clinical; plasma): 1 to 2 h
SMILES: COc1cc2c(N)nc(N3CCN(C(=O)OCC(C)(C)O)CC3)nc2c(OC)c1OC [trimazosin, 2-hydroxy-2-methylpropyl 4-(4-amino-6,7,8-trimethoxy-2-quinazolinyl)-1-piperazinecarboxylate]
Change in Heart Rate at Peak ([1]; 100 mg. trimazosin oral): -4 beats/min. and -2 beats/min. and -15 beats/min. and -10 beats/min. | Change in Systolic Pressure at Peak ([1]; 100 mg. trimazosin oral): -4 mm.Hg. and -22 mm.Hg. and -8 mm.Hg. and -16 mm.Hg. and -9 mm.Hg. | Time to Peak Effect ([1]; 100 mg. trimazosin oral): 240 min and 120 min and 180 min and 90 min | Time to Peak Effect, mean ([1]; 100 mg. trimazosin oral, mean of 6): 155.0 min | Change in Systolic Pressure at Peak, mean ([1]; 100 mg. trimazosin oral, mean of 6, P <0.02): -10.5 mm.Hg. | Change in Heart Rate at Peak, mean ([1]; 100 mg. trimazosin oral, mean of 6, P <0.05): -6.5 beats/min. | desired hypotensive response ([1]; 100 mg. trimazosin, of six patients): 2 patients (nos. 5 and 6) | Change in Heart Rate at Peak ([1]; 200 mg. trimazosin oral): 15 beats/min. and -3 beats/min. and 2 beats/min. and -1 beats/min. | Change in Systolic Pressure at Peak ([1]; 200 mg. trimazosin oral): -21 mm.Hg. and -20 mm.Hg. and -8 mm.Hg. and -1 mm.Hg. | Time to Peak Effect ([1]; 200 mg. trimazosin oral): 240 min and 90 min and 210 min and 180 min | Time to Peak Effect, mean ([1]; 200 mg. trimazosin oral, mean of 4): 180.0 min | Change in Heart Rate at Peak, mean [1, 4]: 3.3 beats/min. | Change in Systolic Pressure at Peak, mean [1, 4]: -12.5 mm.Hg. | systolic pressure lowered to the desired goal ([1]; 200 mg. trimazosin, of four patients): 2 patients (nos. 1 and 2) | desired reduction in systolic pressure and side effects ([1]; 200 mg. trimazosin, patient no. 3): neither the desired reduction in systolic pressure nor side effects | side effect [1, 5]: orthostatic light-headedness | supine systolic pressure [1, 5]: essentially no fall | standing systolic pressure ([1]; 200 mg. trimazosin, patient no. 4, fell from 103): 91 mm. Hg. | adrenergic blocking activity (adrenergic): does not possess adrenergic blocking activity | disappearance of pulmonary venous congestion on chest roentgenogram ([2]; vs. none of eight on placebo, p=0.038): Four of the eight patients | good or excellent improvement in symptoms ([2]; vs. one of eight on placebo, p=0.020): Six of the eight patients | digital vascular reactivity to norepinephrine infusion (norepinephrine): decreased | norepinephrine uptake and secretion (norepinephrine): not affected | increase in forearm venous capacitance ([3]; 2 hours after trimazosin): 35% | forearm venous capacitance ([3]; 2 hours after trimazosin, before 0.83 ± 0.18): 1.12 ± 0.22 ml./100 gm. | increase in forearm venous capacitance ([3]; one patient with normal pulmonary wedge pressure): 50%
